Article PMC10008561 (Nature Communications, 2023)
“And” between values parts separate entries of the source, which are not always exact repeats. Equal entries are not always repeated. Where two headings read alike, the source gives them in different places.

Key:
human KOR (Gi1) [1] = target: T1, human KOR (Gi1) (Homo sapiens, UniProt P41145, R274A); assay: cell-based; details: HEK-293T
T1 construct: expressed in transfected cells; host or cells: HEK293T

human KOR (Gi1) [2] = target: T2, human KOR (Gi1) (Homo sapiens, UniProt P41145, T94V); assay: cell-based; details: HEK-293T
T2 construct: expressed in transfected cells; host or cells: HEK293T
T2 sequence (P41145 whole entry T94V): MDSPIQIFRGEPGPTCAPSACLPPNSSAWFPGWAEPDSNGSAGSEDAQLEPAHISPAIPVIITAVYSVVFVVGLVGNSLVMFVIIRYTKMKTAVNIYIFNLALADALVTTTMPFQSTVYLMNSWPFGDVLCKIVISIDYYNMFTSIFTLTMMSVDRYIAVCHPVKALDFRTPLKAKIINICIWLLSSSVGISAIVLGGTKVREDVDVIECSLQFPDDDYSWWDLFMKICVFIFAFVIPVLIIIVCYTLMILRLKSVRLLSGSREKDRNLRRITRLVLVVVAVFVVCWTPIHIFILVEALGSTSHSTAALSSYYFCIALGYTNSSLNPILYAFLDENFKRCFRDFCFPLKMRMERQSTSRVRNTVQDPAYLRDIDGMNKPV

human KOR (Gi1) [3] = target: T3, human KOR (Gi1) (Homo sapiens, UniProt P41145, G319L); assay: cell-based; details: HEK-293T
T3 construct: expressed in transfected cells; host or cells: HEK293T
T3 sequence (P41145 whole entry G319L): as the sequence (P41145 whole entry T94V) above, with V94T, G319L counted along it

human KOR (Gi1) [4] = target: T4, human KOR (Gi1) (Homo sapiens, UniProt P41145, R271A); assay: cell-based; details: HEK-293T
T4 construct: expressed in transfected cells; host or cells: HEK293T
T4 sequence (P41145 whole entry R271A): as the sequence (P41145 whole entry T94V) above, with V94T, R271A counted along it

human KOR (Gi1) [5] = target: T5, human KOR (Gi1) (Homo sapiens, UniProt P41145, Y320L); assay: cell-based; details: HEK-293T
T5 construct: expressed in transfected cells; host or cells: HEK293T
T5 sequence (P41145 whole entry Y320L): as the sequence (P41145 whole entry T94V) above, with V94T, Y320L counted along it

human KOR (Gi1) [6] = target: T6, human KOR (Gi1) (Homo sapiens, UniProt P41145, Y139L); assay: cell-based; details: HEK-293T
T6 construct: expressed in transfected cells; host or cells: HEK293T
T6 sequence (P41145 whole entry Y139L): as the sequence (P41145 whole entry T94V) above, with V94T, Y139L counted along it

human KOR (Gi1) [7] = target: T7, human KOR (Gi1) (Homo sapiens, UniProt P41145, N141A); assay: cell-based; details: HEK-293T
T7 construct: expressed in transfected cells; host or cells: HEK293T
T7 sequence (P41145 whole entry N141A): as the sequence (P41145 whole entry T94V) above, with V94T, N141A counted along it

human KOR (Gi1) [8] = target: T8, human KOR (Gi1) (Homo sapiens, UniProt P41145, F114L); assay: cell-based; details: HEK-293T
T8 construct: expressed in transfected cells; host or cells: HEK293T
T8 sequence (P41145 whole entry F114L): as the sequence (P41145 whole entry T94V) above, with V94T, F114L counted along it

human KOR (Gi1) [9] = target: T9, human KOR (Gi1) (Homo sapiens, UniProt P41145, L253A); assay: cell-based; details: HEK-293T
T9 construct: expressed in transfected cells; host or cells: HEK293T
T9 sequence (P41145 whole entry L253A): as the sequence (P41145 whole entry T94V) above, with V94T, L253A counted along it

human KOR (Gi1) [10] = target: T10, human KOR (Gi1) (Homo sapiens, UniProt P41145, R257A); assay: cell-based; details: HEK-293T
T10 construct: expressed in transfected cells; host or cells: HEK293T
T10 sequence (P41145 whole entry R257A): as the sequence (P41145 whole entry T94V) above, with V94T, R257A counted along it

human KOR (Gi1) [11] = target: T11, human KOR (Gi1) (Homo sapiens, UniProt P41145); assay: cell-based
T11 construct: expressed in transfected cells; host or cells: HEK293T
T11 sequence (P41145 whole entry): as the sequence (P41145 whole entry T94V) above, with V94T counted along it

human KOR (Gi1) [12] = target: T12, human KOR (Gi1) (Homo sapiens, UniProt P41145, D334A); assay: cell-based; details: HEK-293T
T12 construct: expressed in transfected cells; host or cells: HEK293T
T12 sequence (P41145 whole entry D334A): as the sequence (P41145 whole entry T94V) above, with V94T, D334A counted along it

human KOR (Gi1) [13] = target: T13, human KOR (Gi1) (Homo sapiens, UniProt P41145, K200A); assay: cell-based; details: HEK-293T
T13 construct: expressed in transfected cells; host or cells: HEK293T
T13 sequence (P41145 whole entry K200A): as the sequence (P41145 whole entry T94V) above, with V94T, K200A counted along it

human KOR (Gi1) [14] = target: T14, human KOR (Gi1) (Homo sapiens, UniProt P41145, D105A); assay: cell-based; details: HEK-293T
T14 construct: expressed in transfected cells; host or cells: HEK293T
T14 sequence (P41145 whole entry D105A): as the sequence (P41145 whole entry T94V) above, with V94T, D105A counted along it

human KOR (Gi1) [15] = target: T15, human KOR (Gi1) (Homo sapiens, UniProt P41145, D155A); assay: cell-based; details: HEK-293T
T15 construct: expressed in transfected cells; host or cells: HEK293T
T15 sequence (P41145 whole entry D155A): as the sequence (P41145 whole entry T94V) above, with V94T, D155A counted along it

human KOR (Gi1) [16] = target: T16, human KOR (Gi1) (Homo sapiens, UniProt P41145, R170A); assay: cell-based; details: HEK-293T
T16 construct: expressed in transfected cells; host or cells: HEK293T
T16 sequence (P41145 whole entry R170A): as the sequence (P41145 whole entry T94V) above, with V94T, R170A counted along it

human KOR (Gi1) [17] = target: T17, human KOR (Gi1) (Homo sapiens, UniProt P41145, N326A); assay: cell-based; details: HEK-293T
T17 construct: expressed in transfected cells; host or cells: HEK293T
T17 sequence (P41145 whole entry N326A): as the sequence (P41145 whole entry T94V) above, with V94T, N326A counted along it

human KOR (Gi1) [18] = target: T18, human KOR (Gi1) (Homo sapiens, UniProt P41145, Q115N); assay: cell-based; details: HEK-293T
T18 construct: expressed in transfected cells; host or cells: HEK293T
T18 sequence (P41145 whole entry Q115N): as the sequence (P41145 whole entry T94V) above, with V94T, Q115N counted along it

human KOR (Gi1) [19] = target: T19, human KOR (Gi1) (Homo sapiens, UniProt P41145, F283A); assay: cell-based; details: HEK-293T
T19 construct: expressed in transfected cells; host or cells: HEK293T
T19 sequence (P41145 whole entry F283A): as the sequence (P41145 whole entry T94V) above, with V94T, F283A counted along it

human KOR (Gi1) [20] = target: T20, human KOR (Gi1) (Homo sapiens, UniProt P41145, D266A); assay: cell-based; details: HEK-293T
T20 construct: expressed in transfected cells; host or cells: HEK293T
T20 sequence (P41145 whole entry D266A): as the sequence (P41145 whole entry T94V) above, with V94T, D266A counted along it

KOR Q115N = KOR Q115N (Homo sapiens, UniProt P41145, Q115N); assay: cell-based; parameters: expressed in transfected cells; host or cells: HEK 293T (ATCC, CRL-3216); details: read-out: cAMP response (Figure S4C), KOR Q115N, Log [Drug], replicate values
Chain of KOR Q115N (P41145 whole entry Q115N): as the sequence (P41145 whole entry T94V) above, with V94T, Q115N counted along it

DOR = DOR (Homo sapiens, UniProt P41143); assay: Radioligand competition binding (3H-Diprenorphine)
Chain of DOR (P41143 whole entry): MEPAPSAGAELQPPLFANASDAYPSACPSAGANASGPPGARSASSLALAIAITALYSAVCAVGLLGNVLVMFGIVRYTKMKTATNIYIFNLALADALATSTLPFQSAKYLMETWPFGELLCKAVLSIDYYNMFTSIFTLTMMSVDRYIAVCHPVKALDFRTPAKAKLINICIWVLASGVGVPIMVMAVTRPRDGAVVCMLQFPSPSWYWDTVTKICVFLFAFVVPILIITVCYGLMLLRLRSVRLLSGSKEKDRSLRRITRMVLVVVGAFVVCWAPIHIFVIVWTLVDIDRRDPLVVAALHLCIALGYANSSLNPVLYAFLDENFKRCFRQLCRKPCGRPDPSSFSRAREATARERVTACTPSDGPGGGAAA

human KOR (Gz) [21] = target: T21, human KOR (Gz) (Homo sapiens, UniProt P41145, L253A); assay: cell-based; details: HEK-293T
T21 construct: expressed in transfected cells; host or cells: HEK293T
T21 sequence (P41145 whole entry L253A): as the sequence (P41145 whole entry T94V) above, with V94T, L253A counted along it

human KOR (Gz) [22] = target: T22, human KOR (Gz) (Homo sapiens, UniProt P41145, R274A); assay: cell-based
T22 construct: expressed in transfected cells; host or cells: HEK293T
T22 sequence (P41145 whole entry R274A): as the sequence (P41145 whole entry T94V) above, with V94T, R274A counted along it

human KOR (Gz) [23] = target: T23, human KOR (Gz) (Homo sapiens, UniProt P41145, Y320L); assay: cell-based
T23 construct: expressed in transfected cells; host or cells: HEK293T
T23 sequence (P41145 whole entry Y320L): as the sequence (P41145 whole entry T94V) above, with V94T, Y320L counted along it

human KOR (Gz) [24] = target: T24, human KOR (Gz) (Homo sapiens, UniProt P41145, T94V); assay: cell-based
T24 construct: expressed in transfected cells; host or cells: HEK293T
T24 sequence (P41145 whole entry T94V): as the sequence (P41145 whole entry T94V) above

human KOR (Gz) [25] = target: T25, human KOR (Gz) (Homo sapiens, UniProt P41145, Q115N); assay: cell-based
T25 construct: expressed in transfected cells; host or cells: HEK293T
T25 sequence (P41145 whole entry Q115N): as the sequence (P41145 whole entry T94V) above, with V94T, Q115N counted along it

human KOR (Gz) [26] = target: T26, human KOR (Gz) (Homo sapiens, UniProt P41145, F114L); assay: cell-based
T26 construct: expressed in transfected cells; host or cells: HEK293T
T26 sequence (P41145 whole entry F114L): as the sequence (P41145 whole entry T94V) above, with V94T, F114L counted along it

human KOR (Gz) [27] = target: T27, human KOR (Gz) (Homo sapiens, UniProt P41145, G319L); assay: cell-based
T27 construct: expressed in transfected cells; host or cells: HEK293T
T27 sequence (P41145 whole entry G319L): as the sequence (P41145 whole entry T94V) above, with V94T, G319L counted along it

human KOR (Gz) [28] = target: T28, human KOR (Gz) (Homo sapiens, UniProt P41145, Y139L); assay: cell-based
T28 construct: expressed in transfected cells; host or cells: HEK293T
T28 sequence (P41145 whole entry Y139L): as the sequence (P41145 whole entry T94V) above, with V94T, Y139L counted along it

human KOR (Gz) [29] = target: T29, human KOR (Gz) (Homo sapiens, UniProt P41145, E297A); assay: cell-based
T29 construct: expressed in transfected cells; host or cells: HEK293T
T29 sequence (P41145 whole entry E297A): as the sequence (P41145 whole entry T94V) above, with V94T, E297A counted along it

human KOR (Gz) [30] = target: T30, human KOR (Gz) (Homo sapiens, UniProt P41145); assay: cell-based
T30 construct: expressed in transfected cells; host or cells: HEK293T
T30 sequence (P41145 whole entry): as the sequence (P41145 whole entry T94V) above, with V94T counted along it

KOR = tested on: KOR; parameters: method as in Cao et al., ACS Chem Neuro 2020; details: ref Cao et al., ACS Chem Neuro 2020; cited from earlier work
[31] = HEK-293T, read-out: Gz (Figure 5A concentration-response, replicate values)

T1 sequence (P41145 whole entry R274A): as the sequence (P41145 whole entry T94V) above, with V94T, R274A counted along it

Question: What does the source list for `CN(C(=O)/C=C/c1ccoc1)[C@@H]1CC[C@@]2(O)[C@H]3Cc4ccc(O)c5c4[C@@]2(CCN3CC2CC2)[C@H]1O5` [Nalfurafine, nalfurafine]?
Answer: Emax (human KOR (Gi1) [1]): 100%; Emax (human KOR (Gi1) [2]): 99.2%; Emax (human KOR (Gi1) [3]): 116%; Emax (human KOR (Gi1) [4]): 105%; Emax (human KOR (Gi1) [5]): 76.3%; Emax (human KOR (Gi1) [6]): 96.7%; Emax (human KOR (Gi1) [7]): 101%; Emax (human KOR (Gi1) [8]): 65.5%; Emax (human KOR (Gi1) [9]): 106%; Emax (human KOR (Gi1) [10]): 99.5%; Emax% (human KOR (Gi1) [11]): 101.1% and 100%; Emax (human KOR (Gi1) [11]; HEK-293T): 85 ± 7%; Emax (human KOR (Gi1) [12]): 77.5%; Emax (human KOR (Gi1) [13]): 96.1%; Emax (human KOR (Gi1) [14]): 94.3%; Emax (human KOR (Gi1) [15]): 79.1%; Emax (human KOR (Gi1) [16]): 58.7%; Emax (human KOR (Gi1) [17]): 108%; Emax (human KOR (Gi1) [18]): 77.3%; Emax (human KOR (Gi1) [19]): 77.6%; Emax (human KOR (Gi1) [20]): 106%; activation at 1 µM (KOR Q115N; M -6): 99.3%; activation at […] (KOR Q115N; M -6.5): 94.1%; activation at 0.1 µM (KOR Q115N; M -7): 101%; activation at […] (KOR Q115N; M -7.5): 96.7%; activation at 0.01 µM (KOR Q115N; M -8): 100%; activation at […] (KOR Q115N; M -8.5): 91.3%; activation at 0.001 µM (KOR Q115N; M -9): 89.3%; activation at […] (KOR Q115N; M -9.5): 82.2%; activation at 0.0001 µM (KOR Q115N; M -10): 67.6%; activation at 10 pM (KOR Q115N; M -11): 7.51%; Ki (DOR): 0.427 nM; Emax (human KOR (Gz) [21]): 112%; FC vs wild type (human KOR (Gz) [22]): 977; Emax (human KOR (Gz) [22]; HEK-293T): 99.1%; FC vs wild type (human KOR (Gz) [23]): 407; Emax (human KOR (Gz) [23]; HEK-293T): 93.7%; FC vs wild type (human KOR (Gz) [24]): 6; FC vs wild type (human KOR (Gz) [25]): 39; Emax (human KOR (Gz) [25]; HEK-293T): 78.7%; FC vs wild type (human KOR (Gz) [26]): 54; Emax (human KOR (Gz) [26]; HEK-293T): 85.6%; FC vs wild type (human KOR (Gz) [27]): 162; FC vs wild type (human KOR (Gz) [28]): 4; Emax (human KOR (Gz) [28]; HEK-293T): 103%; FC vs wild type (human KOR (Gz) [29]): 1; Emax (human KOR (Gz) [29]; HEK-293T): 103%; Emax% (human KOR (Gz) [30]): 96.48%; FC vs wild type (human KOR (Gz) [30]): 1; Emax (human KOR (Gz) [30]; HEK-293T): 96.7%; activation at 10 pM (human KOR (Gz) [30]; [31]): 45.5%; activation at 0.1 µM (human KOR (Gz) [30]; [31]): 99.7%; activation at 1 µM (human KOR (Gz) [30]; [31]): 111%; activation at 10 µM (human KOR (Gz) [30]; [31]): 97.8%; bias factor toward G protein signaling (KOR): 4.5
